Assays:
[1] = system: CNS-1 glioma cell line; assay: efficacy of Paclitaxel across the in vitro BBB model after PEF application (glioma confluency); assay type: cell-based; details: 200 nM Paclitaxel on apical side, 2 h with insert, followed 3 days
Protocol: Reference is made to FIG. 5A. To study the effect of PEFs application on BBB permeability for Paclitaxel (Taxol®), the in vitro BBB model 100 as shown FIG. 2A was modified by seeding a CNS-1 glioma cell line 254 on a bottom surface 103 of cell culture well 101 (40,000 cells per well), into which the BLEC co-culture system grown on membrane 204 of Transwell insert 200 was also grown. When the glioma cell line was at about 16±0.5% confluency, 200 nM Paclitaxel was added into ECM media 102 in the apical side of Transwell insert 200 and PEFs were applied at one of various settings, then incubated for 2 hours after which time the Transwell insert was removed. […] Glioma cell line 254 was then further incubated for three days and the level of confluency was measured at 2 hours, 1 day, 2 days, and 3 days following Paclitaxel administration.
The results as shown by way of example in FIG. 5B indicate that low pulse-count, low frequency, low EF strength PEFs induce sufficient BBB disruption to allow a therapeutic dose of Paclitaxel to traverse the in vitro BBB model and reach the glioma cell line.

[2] = system: in vitro BBB model (CD34+-derived ECs co-cultured with bovine brain pericytes on Transwell inserts); assay type: in vitro ADME, human
Protocol: Reference is made to FIG. 2A that schematically illustrates an in vitro BBB model 100 grown in Transwell inserts 200 (3401-Costar, Corning, USA). The in vitro human BBB model was generated as follows: CD34^+-derived ECs 250 were seeded onto matrigel-coated (BD Biosciences, USA) apical side 206 of a Transwell insert membrane 204. Primary bovine brain pericytes 252 were seeded on the gelatin-coated basolateral side 208 of the same Transwell inserts 2-24 h before the seeding of the ECs. […]
PEFs were applied to Transwell inserts 200 using an electroporator power supply (BTX 830; Harvard Apparatus, Holliston, MA). […] Given the parameters of the electrode and based on a finite elements model of the described system, the EF generated between the electrodes by the applied voltage can be approximated as uniform across the ECs monolayer and can be calculated by dividing the Voltage by the electrodes distance. […]
50 μl of a solution containing 0.5 mg/ml NaF in PBS was added to the luminal (apical) side of each Transwell insert 200 one minute prior to PEFs application. […] A sample of medium 102 collected from under basolateral side 208 was collected and the samples' fluorescence was measured using TECAN pro200 plate reader (485/538 nm excitation/emission). […]

## CC(=O)O[C@H]1C(=O)[C@@]2(C)[C@H]([C@H](OC(=O)c3ccccc3)[C@]3(O)C[C@H](OC(=O)[C@H](O)[C@@H](NC(=O)c4ccccc4)c4ccccc4)C(C)=C1C3(C)C)[C@]1(OC(C)=O)CO[C@@H]1C[C@@H]2O [Paclitaxel]
[1]; 10 pulses, 74 V/cm, 1 Hz
  glioma cell growth / confluency: substantially disrupt its growth
[1]; 20 pulses, 30 V/cm, 1 Hz
  glioma cell growth / confluency: glioma growth was not significantly retarded
[1]; 99 pulses, 30 V/cm, 1 Hz
  glioma cell growth / confluency: level of retardation of glioma growth was equivalent to application of 10 pulses of PEFs at a field strength of 74 V/cm
[1]; control, no PEF application
  glioma cell growth / confluency: reach full confluency after 3 days

## O=C([O-])c1ccccc1-c1c2ccc(=O)cc-2oc2cc([O-])ccc12.[Na+].[Na+] [NaF, sodium fluorescein]
[2]
  increase in permeability: 40±9%
